Source: the kinase profiling compilation of Christmann-Franck et al. (2016)

Tests used:
Assay in all cases: radiometric filter-binding kinase assay, Kinase HotSpot
Details in all cases: compound 0.5 µM; ATP 10 µM
[1] = biological target: CDK1 CCNA2 (human) (UniProt P06493+P20248)
[2] = biological target: CDK1 CCNB1 (human) (UniProt P06493+P14635)
[3] = biological target: CDK2 CCNA2 (human) (UniProt P24941+P20248)
[4] = biological target: CDK2 CCNE1 (human) (UniProt P24941+P24864)
[5] = biological target: CDK3 CCNE1 (human) (UniProt Q00526+P24864)
[6] = biological target: CDK4 CCND1 (human) (UniProt P24385+P11802)
[7] = biological target: CDK4 CCND3 (human) (UniProt P30281+P11802)
[8] = biological target: CDK5 CDK5R1 p25 (human) (UniProt Q00535+Q15078)
[9] = biological target: CDK5 CDK5R1 p35 (human) (UniProt Q00535+Q15078)
[10] = biological target: CDK6 CCND1 (human) (UniProt Q00534+P24385)
[11] = biological target: CDK6 CCND3 (human) (UniProt P30281+Q00534)
[12] = biological target: CDK7 CCNH MNAT1 (human) (UniProt P50613+P51948+P51946)
[13] = biological target: CDK9 CCNK (human) (UniProt O75909+P50750)
[14] = biological target: CDK9 CCNT1 (human) (UniProt P50750+O60563)
[15] = biological target: DYRK1B (human) (UniProt Q9Y463)
[16] = biological target: LTK (human) (UniProt P29376)
[17] = biological target: MAP3K7 TAB1 (human) (UniProt O43318+Q15750)
[18] = biological target: PRKCH (human) (UniProt P24723)
[19] = biological target: STK33 (human) (UniProt Q9BYT3)
[20] = system: SGK1 (human), O00141 [S422D]
Sequence of SGK1 (human), O00141 [S422D] (O00141 whole entry S422D, looked up): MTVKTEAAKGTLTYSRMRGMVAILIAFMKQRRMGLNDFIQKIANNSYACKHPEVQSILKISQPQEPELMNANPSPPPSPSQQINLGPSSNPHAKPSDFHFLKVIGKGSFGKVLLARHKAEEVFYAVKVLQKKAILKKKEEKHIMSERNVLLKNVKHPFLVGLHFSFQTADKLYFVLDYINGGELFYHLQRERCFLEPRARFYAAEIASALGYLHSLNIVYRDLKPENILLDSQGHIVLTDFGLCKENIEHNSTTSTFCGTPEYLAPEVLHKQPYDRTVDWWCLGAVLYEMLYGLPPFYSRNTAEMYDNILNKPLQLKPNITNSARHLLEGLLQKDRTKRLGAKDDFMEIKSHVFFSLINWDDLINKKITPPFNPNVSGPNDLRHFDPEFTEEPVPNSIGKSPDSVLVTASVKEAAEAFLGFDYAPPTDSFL

Sequence of CDK1 CCNA2 (human) (P06493 whole entry, looked up): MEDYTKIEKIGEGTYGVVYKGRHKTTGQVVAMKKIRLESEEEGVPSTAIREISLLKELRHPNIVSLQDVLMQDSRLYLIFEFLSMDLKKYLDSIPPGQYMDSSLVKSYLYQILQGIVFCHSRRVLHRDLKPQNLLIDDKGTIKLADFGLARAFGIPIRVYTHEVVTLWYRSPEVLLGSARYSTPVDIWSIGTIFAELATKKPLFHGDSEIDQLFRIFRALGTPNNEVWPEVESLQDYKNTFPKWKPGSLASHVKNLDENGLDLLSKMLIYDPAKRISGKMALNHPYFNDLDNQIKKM
Sequence of CDK1 CCNA2 (human) (P20248 whole entry, looked up): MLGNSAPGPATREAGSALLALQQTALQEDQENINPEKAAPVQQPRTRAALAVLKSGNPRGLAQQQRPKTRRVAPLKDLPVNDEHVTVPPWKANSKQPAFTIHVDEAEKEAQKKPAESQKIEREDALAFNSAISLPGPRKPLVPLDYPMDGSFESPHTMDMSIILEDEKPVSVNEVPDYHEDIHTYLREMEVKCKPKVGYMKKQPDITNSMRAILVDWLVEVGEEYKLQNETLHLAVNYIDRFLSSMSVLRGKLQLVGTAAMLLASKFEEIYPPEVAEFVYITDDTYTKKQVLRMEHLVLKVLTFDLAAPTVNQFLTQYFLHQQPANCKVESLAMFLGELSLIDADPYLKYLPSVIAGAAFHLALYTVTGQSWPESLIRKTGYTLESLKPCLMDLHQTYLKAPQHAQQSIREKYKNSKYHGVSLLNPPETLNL
Sequence of CDK1 CCNB1 (human) (P06493 whole entry, looked up): as the sequence (P06493 whole entry, looked up) above
Sequence of CDK1 CCNB1 (human) (P14635 whole entry, looked up): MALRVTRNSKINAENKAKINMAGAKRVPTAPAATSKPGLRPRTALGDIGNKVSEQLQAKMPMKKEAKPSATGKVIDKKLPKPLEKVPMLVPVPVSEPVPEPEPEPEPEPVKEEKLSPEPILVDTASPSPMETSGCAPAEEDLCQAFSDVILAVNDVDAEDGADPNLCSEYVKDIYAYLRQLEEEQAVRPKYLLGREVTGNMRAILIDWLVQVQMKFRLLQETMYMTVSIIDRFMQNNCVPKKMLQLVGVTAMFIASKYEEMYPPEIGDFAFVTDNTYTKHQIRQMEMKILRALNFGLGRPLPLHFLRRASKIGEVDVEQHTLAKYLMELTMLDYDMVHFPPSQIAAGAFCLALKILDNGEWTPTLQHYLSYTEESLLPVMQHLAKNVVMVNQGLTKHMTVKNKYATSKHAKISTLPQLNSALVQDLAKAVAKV
Sequence of CDK2 CCNE1 (human) (P24864 whole entry, looked up, other chains not shown): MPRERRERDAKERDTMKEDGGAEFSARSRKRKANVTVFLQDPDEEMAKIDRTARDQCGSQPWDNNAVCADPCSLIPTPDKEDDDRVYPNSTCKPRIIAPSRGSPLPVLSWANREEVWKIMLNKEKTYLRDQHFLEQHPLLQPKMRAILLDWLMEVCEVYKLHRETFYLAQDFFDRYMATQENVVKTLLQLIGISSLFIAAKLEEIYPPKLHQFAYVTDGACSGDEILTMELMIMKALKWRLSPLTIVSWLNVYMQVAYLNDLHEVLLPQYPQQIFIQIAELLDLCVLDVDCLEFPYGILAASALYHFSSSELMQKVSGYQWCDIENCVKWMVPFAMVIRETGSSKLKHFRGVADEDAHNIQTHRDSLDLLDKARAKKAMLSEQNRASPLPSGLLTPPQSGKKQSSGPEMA
Sequence of CDK3 CCNE1 (human) (P24864 whole entry, looked up): as the sequence (P24864 whole entry, looked up, other chains not shown) above
Sequence of CDK3 CCNE1 (human) (Q00526 whole entry, looked up): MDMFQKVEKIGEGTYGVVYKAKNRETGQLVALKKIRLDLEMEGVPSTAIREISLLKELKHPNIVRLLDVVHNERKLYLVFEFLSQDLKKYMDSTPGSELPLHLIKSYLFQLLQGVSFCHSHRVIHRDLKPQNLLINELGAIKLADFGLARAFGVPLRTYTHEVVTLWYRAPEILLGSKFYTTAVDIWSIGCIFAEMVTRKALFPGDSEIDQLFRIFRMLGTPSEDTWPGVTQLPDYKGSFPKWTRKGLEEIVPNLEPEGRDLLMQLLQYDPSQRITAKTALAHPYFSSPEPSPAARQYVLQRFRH
Sequence of STK33 (human) (Q9BYT3 whole entry, looked up): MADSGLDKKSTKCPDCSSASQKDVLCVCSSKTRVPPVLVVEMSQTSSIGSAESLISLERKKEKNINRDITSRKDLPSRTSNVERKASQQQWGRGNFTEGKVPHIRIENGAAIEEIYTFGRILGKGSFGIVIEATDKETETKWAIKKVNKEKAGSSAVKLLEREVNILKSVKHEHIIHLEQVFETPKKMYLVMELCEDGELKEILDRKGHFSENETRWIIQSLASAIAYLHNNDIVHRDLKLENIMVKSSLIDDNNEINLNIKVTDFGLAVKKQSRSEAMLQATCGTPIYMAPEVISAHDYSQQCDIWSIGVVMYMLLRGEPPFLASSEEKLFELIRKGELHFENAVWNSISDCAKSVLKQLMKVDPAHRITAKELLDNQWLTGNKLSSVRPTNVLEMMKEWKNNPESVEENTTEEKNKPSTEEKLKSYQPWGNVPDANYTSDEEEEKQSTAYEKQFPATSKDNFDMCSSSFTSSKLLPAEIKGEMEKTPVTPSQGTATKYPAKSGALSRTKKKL
Sequence of CDK7 CCNH MNAT1 (human) (P50613 whole entry, looked up): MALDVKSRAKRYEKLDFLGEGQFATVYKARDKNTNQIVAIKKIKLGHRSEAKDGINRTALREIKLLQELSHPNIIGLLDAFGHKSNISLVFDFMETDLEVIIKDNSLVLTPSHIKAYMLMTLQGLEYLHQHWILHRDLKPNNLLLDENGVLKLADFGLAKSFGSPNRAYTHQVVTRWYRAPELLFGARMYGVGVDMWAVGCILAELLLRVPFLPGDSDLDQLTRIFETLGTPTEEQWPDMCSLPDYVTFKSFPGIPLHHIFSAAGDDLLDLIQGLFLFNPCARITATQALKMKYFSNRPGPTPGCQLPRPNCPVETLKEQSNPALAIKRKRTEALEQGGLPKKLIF
Sequence of CDK7 CCNH MNAT1 (human) (P51946 whole entry, looked up): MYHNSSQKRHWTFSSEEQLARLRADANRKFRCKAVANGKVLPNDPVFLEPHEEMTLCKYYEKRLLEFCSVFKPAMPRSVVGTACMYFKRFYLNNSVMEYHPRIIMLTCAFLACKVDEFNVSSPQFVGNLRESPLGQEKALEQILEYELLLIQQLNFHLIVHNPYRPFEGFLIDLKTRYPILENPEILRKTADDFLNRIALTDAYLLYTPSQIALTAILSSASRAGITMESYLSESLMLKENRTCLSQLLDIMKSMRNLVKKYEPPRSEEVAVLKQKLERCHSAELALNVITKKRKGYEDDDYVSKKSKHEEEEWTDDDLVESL
Sequence of CDK7 CCNH MNAT1 (human) (P51948 whole entry, looked up): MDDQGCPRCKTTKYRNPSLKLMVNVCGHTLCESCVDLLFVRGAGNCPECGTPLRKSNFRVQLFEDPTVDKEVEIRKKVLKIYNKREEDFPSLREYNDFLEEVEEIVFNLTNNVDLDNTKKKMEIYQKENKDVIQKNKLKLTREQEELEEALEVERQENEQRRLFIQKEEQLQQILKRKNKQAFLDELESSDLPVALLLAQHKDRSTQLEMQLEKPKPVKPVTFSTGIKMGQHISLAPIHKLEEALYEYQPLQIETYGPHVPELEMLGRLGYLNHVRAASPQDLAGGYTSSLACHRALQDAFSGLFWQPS
Sequence of CDK5 CDK5R1 p25 (human) (Q00535 whole entry, looked up): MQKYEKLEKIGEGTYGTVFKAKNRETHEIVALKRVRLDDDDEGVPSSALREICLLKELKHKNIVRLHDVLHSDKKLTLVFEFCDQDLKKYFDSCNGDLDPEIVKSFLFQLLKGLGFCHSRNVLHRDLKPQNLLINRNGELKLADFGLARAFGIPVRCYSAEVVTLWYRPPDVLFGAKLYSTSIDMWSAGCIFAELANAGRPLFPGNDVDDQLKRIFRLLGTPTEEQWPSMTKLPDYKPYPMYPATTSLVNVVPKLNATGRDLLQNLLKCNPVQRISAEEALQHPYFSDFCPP
Sequence of CDK5 CDK5R1 p25 (human) (Q15078 whole entry, looked up): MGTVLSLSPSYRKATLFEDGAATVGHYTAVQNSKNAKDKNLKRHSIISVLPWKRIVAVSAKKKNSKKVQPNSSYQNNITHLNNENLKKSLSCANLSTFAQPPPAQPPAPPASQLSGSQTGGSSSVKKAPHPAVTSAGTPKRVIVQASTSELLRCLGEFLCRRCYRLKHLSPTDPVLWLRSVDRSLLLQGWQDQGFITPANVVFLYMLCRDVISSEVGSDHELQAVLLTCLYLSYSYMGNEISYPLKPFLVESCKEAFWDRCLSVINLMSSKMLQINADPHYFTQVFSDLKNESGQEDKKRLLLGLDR
Sequence of CDK2 CCNA2 (human) (P20248 whole entry, looked up, other chains not shown): as the sequence (P20248 whole entry, looked up) above

## CC(C)(C)n1nc(Cc2cccc3ccccc23)c2c(N)ncnc21
[1]
  residual activity: 94.8%
[2]
  residual activity: 107%
[3]
  residual activity: 99.4%
[4]
  residual activity: 89.6%
[5]
  residual activity: 87.8%
[6]
  residual activity: 96.7%
[7]
  residual activity: 95.8%
[8]
  residual activity: 109%
[9]
  residual activity: 95.6%
[10]
  residual activity: 98.6%
[11]
  residual activity: 97.3%
[12]
  residual activity: 100%
[13]
  residual activity: 81.4%
[14]
  residual activity: 102%
[15]
  residual activity: 98.6%
[16]
  residual activity: 98.2%
[17]
  residual activity: 99%
[18]
  residual activity: 92.1%
[19]
  residual activity: 99.7%

## O=C1Nc2ccccc2/C1=C\c1c(Cl)[nH]c2ccccc12
[20]
  residual activity: 116%

## Nc1nccc(-c2c(-c3ccc(F)cc3)ncn2C2CCNCC2)n1
[20]
  residual activity: 97.4%

## O=c1cc(N2CCOCC2)oc2c1ccc1ccccc12
[20]
  residual activity: 98%

## COc1ccc(C(=O)Nc2sc3c(c2C(N)=O)CCCC3)cc1OC
[20]
  residual activity: 98.7%
